Test: Solubility in water of specified hydrophobic compound or comparative compound
Type: physicochemical
Conditions: water at 25° C.
Description: Specifically, a Erlenmeyer flask is charged with 20 g of the test substance and 80 g of water, and shaken at 25° C. for 24 hours. The resultant solution is filtered through a 5 μm membrane filter, to obtain filtrate. The obtained filtrate (5 g) is evaporated to dryness at 100° C. for 3 hours. From the mass of the residual, the content (mass %) of the test substance dissolved in the filtrate relative to the total amount of the filtrate is calculated. The calculated content (mass %) is defined as the solubility in water of the test substance.
Specifically, an Erlenmeyer flask is charged with 100 g of water; while the internal temperature is maintained at 25° C., the test substance is gradually dropped. The dropping is ended when visual observation finds cloudiness in the liquid within the Erlenmeyer flask. The mass (mass %) of the test substance dropped until the end of the dropping relative to the total mass of the liquid within the Erlenmeyer flask is defined as the solubility in water of the test substance.

Row | SMILES | Solubility in water [mass %]
1 | CCCCCCCCO [Example 1-Octanol, 1-Octanol] | <1
2 | CCCCCCCCCCC(CO)CCCCCCCC (stereo not drawn) [2-Octyldodecanol] | <1
3 | CCCCCCCCCCCCCCCCCCCCCCO [Example 1-Docosanol, 1-Docosanol] | <1

The remaining lines, values ahead:

Row | Solubility in water [mass %] | SMILES
4 | <1 | CCCCCCCCCCCCCCCCCCO [Stearyl alcohol]
5 | <1 | CCCCCCCCCCCCCCCCCC(=O)OC [EXCEPARL MS]
6 | <1 | CCCCCCCCCCCCCCCCCCCCO [Example 1-Eicosanol, 1-Eicosanol]

— patent publication US10913871B2, “Ink composition, method for producing the same, and image-forming method” (FUJIFILM CORPORATION, priority 2017, dated 2021)
